Results from patent publication US9340590B2 (priority 2011, dated 2016).
Read-outs that look alike come from different tables or passages of the source. Positions of bridges follow the written chain, without caps; N, C: chain ends. Non-standard residues stand in square brackets, D forms with d. Residues, ends and D or L forms follow the SMILES beside them. NMeF = CN[C@@H](Cc1ccccc1)C(=O)O; Pra = C#CC[C@H](N)C(=O)O

Key:
Experiment in all cases: cell-based
hNav1.7 = hNav1.7 (Homo sapiens, UniProt Q15858); assay type: cell-based
hNav1.5 = hNav1.5 (Homo sapiens, UniProt Q14524); conditions: IonWorks Quattro, read-out: IWQ Use Nav1.5
hNav1.3 = hNav1.3 (Homo sapiens, UniProt Q9NY46); conditions: IonWorks Quattro, read-out: IWQ Use Nav1.3
[1] = IonWorks Quattro, use-dependent block, hNav1.7, read-out: IWQ Use Nav1.7
[2] = IonWorks Quattro, use-dependent protocol, hNav1.7, read-out: IWQ Use Nav1.7
[3] = use-dependent protocol, hNav1.5
[4] = use-dependent protocol, hNav1.3

Sequence of hNav1.7 (Q15858 whole entry, looked up): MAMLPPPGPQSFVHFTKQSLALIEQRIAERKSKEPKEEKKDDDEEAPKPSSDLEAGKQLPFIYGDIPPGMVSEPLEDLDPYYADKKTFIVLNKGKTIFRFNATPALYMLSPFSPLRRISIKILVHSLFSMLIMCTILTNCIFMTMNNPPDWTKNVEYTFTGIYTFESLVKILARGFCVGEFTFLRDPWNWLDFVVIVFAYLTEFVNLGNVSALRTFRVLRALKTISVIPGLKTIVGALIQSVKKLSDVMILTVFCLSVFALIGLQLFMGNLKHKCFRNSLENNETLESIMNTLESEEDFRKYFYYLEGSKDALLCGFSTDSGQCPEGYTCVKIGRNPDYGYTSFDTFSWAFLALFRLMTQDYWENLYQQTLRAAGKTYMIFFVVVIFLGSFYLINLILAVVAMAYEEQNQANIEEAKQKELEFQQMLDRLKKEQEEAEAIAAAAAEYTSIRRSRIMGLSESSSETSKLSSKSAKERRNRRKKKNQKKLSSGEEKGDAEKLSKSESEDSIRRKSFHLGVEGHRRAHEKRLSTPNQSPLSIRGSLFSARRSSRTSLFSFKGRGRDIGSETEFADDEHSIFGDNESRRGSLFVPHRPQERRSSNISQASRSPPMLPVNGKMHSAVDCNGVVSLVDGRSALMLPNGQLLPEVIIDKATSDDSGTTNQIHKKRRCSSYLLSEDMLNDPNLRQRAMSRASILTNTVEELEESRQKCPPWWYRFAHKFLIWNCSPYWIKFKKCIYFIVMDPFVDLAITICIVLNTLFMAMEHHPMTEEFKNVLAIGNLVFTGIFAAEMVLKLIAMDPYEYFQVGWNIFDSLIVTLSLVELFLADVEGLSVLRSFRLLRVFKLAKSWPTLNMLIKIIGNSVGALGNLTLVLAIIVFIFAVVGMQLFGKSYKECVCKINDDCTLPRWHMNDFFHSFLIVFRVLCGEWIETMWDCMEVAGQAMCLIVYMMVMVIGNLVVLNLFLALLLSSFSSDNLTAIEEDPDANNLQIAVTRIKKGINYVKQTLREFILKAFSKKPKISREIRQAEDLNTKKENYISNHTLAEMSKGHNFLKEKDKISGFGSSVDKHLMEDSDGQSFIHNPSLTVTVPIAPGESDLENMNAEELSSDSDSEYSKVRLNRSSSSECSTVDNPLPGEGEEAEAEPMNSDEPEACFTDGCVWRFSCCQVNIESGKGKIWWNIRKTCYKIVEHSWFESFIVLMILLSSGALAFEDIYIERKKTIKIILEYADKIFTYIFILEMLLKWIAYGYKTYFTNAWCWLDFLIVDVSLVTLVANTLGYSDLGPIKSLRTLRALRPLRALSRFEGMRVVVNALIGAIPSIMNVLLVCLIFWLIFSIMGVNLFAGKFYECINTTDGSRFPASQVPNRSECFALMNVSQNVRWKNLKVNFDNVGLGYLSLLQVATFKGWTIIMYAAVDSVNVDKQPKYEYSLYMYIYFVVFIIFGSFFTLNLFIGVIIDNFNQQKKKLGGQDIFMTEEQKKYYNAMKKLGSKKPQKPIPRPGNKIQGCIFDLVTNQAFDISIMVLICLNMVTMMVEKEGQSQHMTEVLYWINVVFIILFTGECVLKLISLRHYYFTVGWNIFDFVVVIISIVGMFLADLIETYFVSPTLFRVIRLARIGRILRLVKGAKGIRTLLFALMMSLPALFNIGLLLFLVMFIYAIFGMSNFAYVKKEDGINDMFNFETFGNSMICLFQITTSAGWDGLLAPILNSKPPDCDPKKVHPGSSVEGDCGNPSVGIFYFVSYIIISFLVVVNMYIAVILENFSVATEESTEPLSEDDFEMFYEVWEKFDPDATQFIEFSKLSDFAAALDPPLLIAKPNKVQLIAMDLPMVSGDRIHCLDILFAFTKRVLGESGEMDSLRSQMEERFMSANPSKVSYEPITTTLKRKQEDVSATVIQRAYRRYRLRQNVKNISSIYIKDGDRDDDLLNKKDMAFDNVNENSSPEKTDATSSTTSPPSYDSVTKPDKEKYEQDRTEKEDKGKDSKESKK
Sequence of hNav1.5 (Q14524 whole entry, looked up): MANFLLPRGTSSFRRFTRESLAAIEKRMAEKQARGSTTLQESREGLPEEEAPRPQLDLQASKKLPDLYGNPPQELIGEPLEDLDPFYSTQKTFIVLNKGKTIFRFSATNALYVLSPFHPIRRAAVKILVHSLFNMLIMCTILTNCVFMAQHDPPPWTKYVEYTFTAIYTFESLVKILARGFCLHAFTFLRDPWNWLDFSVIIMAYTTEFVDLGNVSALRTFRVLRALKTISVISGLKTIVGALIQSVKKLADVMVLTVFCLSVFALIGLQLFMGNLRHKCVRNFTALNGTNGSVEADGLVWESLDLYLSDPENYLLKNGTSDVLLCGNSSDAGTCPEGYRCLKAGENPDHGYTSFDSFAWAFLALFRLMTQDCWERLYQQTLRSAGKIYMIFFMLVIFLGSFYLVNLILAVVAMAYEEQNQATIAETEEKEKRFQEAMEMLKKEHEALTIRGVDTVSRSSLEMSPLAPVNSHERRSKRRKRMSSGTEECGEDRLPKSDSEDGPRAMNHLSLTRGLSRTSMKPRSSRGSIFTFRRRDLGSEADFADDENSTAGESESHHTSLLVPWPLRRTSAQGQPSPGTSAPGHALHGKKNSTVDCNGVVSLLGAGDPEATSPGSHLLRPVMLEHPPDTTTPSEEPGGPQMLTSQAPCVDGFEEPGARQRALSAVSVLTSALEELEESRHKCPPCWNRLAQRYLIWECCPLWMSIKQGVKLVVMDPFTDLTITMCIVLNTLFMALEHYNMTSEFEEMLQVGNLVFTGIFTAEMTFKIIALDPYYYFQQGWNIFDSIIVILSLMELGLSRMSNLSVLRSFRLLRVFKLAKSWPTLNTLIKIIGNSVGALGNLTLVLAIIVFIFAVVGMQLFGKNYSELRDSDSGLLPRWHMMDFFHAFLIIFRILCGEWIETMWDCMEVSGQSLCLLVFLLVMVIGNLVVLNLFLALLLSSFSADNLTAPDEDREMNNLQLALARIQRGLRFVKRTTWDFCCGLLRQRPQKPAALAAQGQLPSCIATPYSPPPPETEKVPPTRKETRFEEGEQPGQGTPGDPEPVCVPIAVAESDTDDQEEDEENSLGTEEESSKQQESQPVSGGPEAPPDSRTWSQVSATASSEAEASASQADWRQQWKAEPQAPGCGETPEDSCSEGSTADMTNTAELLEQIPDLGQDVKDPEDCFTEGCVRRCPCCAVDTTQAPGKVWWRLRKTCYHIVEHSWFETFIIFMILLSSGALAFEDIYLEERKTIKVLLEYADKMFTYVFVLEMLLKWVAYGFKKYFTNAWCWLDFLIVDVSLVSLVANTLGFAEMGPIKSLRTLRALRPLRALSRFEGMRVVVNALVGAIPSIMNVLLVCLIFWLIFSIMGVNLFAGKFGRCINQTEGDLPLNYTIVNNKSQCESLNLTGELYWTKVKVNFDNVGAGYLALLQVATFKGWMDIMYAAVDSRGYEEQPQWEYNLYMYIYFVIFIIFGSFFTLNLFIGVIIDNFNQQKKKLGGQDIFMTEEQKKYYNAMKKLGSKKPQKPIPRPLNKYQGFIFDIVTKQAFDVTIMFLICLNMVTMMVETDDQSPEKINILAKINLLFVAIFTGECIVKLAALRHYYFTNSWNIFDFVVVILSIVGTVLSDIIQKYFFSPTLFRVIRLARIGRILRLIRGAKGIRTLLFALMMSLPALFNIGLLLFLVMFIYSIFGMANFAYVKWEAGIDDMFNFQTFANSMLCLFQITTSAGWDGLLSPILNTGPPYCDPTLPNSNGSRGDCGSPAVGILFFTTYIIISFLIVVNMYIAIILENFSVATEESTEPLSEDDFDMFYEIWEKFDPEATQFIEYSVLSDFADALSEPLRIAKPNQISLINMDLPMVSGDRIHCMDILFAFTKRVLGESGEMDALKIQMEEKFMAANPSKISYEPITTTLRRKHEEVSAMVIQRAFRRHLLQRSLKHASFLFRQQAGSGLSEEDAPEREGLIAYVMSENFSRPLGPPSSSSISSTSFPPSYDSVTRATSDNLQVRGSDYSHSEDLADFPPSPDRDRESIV

| Compound | IC50 (hNav1.7; [1]) [µM] | IC50 (hNav1.5; use-dependent block, hNav1.5) [µM] | IC50 (hNav1.3; use-dependent block, hNav1.3) [µM] | also measured |
| --- | --- | --- | --- | --- |
| C#CC[C@@H]1NC(=O)[C@H](CC(=O)O)NC(=O)[C@@H]2CCCN2C(=O)[C@H](CCC(=O)O)NC(=O)[C@@H]2CSSC[C@@H]3NC(=O)[C@H](C(C)C)NC(=O)[C@H](CC(C)C)NC(=O)[C@H](CC(N)=O)NC(=O)[C@@H]4CCCN4C(=O)[C@H](CCCNC(=N)N)NC(=O)[C@H](CSSC[C@H](NC(=O)[C@@H](N)CC(=O)O)C(=O)N[C@@H](CC(C)C)C(=O)NCC(=O)N[C@@H](C)C(=O)N[C@@H](Cc4ccccc4)C(=O)N[C@@H](CCCNC(=N)N)C(=O)N[C@@H](CCCCN)C(=O)N2)NC(=O)[C@H](CSSC[C@@H](C(=O)N[C@@H](CCCCN)C(=O)N[C@@H](Cc2ccc(O)cc2)C(=O)N[C@H](C(=O)N[C@@H](Cc2ccccc2)C(N)=O)C(C)C)NC(=O)[C@H](Cc2c[nH]c4ccccc24)NC(=O)[C@H](CCCNC(=N)N)NC(=O)[C@H](Cc2c[nH]cn2)NC(=O)[C@H](CC(C)C)NC(=O)[C@H](CCCNC(=N)N)NC(=O)[C@H](CO)NC3=O)NC(=O)[C@H](CCCCN)NC(=O)[C@H](CC(=O)O)NC1=O [compound 798] (H-DCLGAFRKCEPD[Pra]DKCCRPNLVCSRLHRWCKYVF-NH2; disulfide 2-17, 9-23, 16-30) | 0.54 | 32.2 | 0.56 | – |
| CC[C@H](C)[C@@H]1NC(=O)[C@@H]2CSSC[C@@H]3NC(=O)[C@H](C(C)C)NC(=O)[C@H](CC(C)C)NC(=O)[C@H](CC(N)=O)NC(=O)[C@@H]4CCCN4C(=O)[C@H](CCCNC(=N)N)NC(=O)[C@H](CSSC[C@H](NC(=O)[C@@H](N)CC(=O)O)C(=O)N[C@@H](CC(C)C)C(=O)NCC(=O)N(C)[C@@H](Cc4ccccc4)C(=O)N[C@@H](Cc4ccccc4)C(=O)N[C@@H](CCCNC(=N)N)C(=O)N[C@@H](CCCCN)C(=O)N2)NC(=O)[C@H](CSSC[C@@H](C(=O)N[C@@H](CCCCN)C(=O)N[C@@H](Cc2ccc(O)cc2)C(=O)N[C@H](C(=O)N[C@@H](Cc2ccccc2)C(N)=O)C(C)C)NC(=O)[C@H](Cc2c[nH]c4ccccc24)NC(=O)[C@H](CCCCN)NC(=O)[C@H](Cc2c[nH]cn2)NC(=O)[C@H]([C@@H](C)O)NC(=O)[C@H](CCCNC(=N)N)NC(=O)[C@H](CO)NC3=O)NC(=O)[C@H](CCCCN)NC(=O)[C@H](CC(=O)O)NC(=O)[C@H](CC(N)=O)NC(=O)[C@H](CC(=O)O)NC(=O)[C@@H]2CCCN2C1=O [compound 629] (H-DCLG[NMeF]FRKCIPDNDKCCRPNLVCSRTHKWCKYVF-NH2; disulfide 2-17, 9-23, 16-30) | – | – | – | IC50 (hNav1.7; [2]): 0.077 µM; IC50 (hNav1.5; [3]): 13.6 µM; IC50 (hNav1.3; [4]): 0.095 µM |
| CC[C@H](C)[C@@H]1NC(=O)[C@@H]2CSSC[C@@H]3NC(=O)[C@H](C(C)C)NC(=O)[C@H](CC(C)C)NC(=O)[C@H](CC(N)=O)NC(=O)[C@@H]4CCCN4C(=O)[C@H](CCCNC(=N)N)NC(=O)[C@H](CSSC[C@H](NC(=O)[C@@H](N)CC(=O)O)C(=O)N[C@@H](CC(C)C)C(=O)NCC(=O)N[C@@H](C)C(=O)N[C@@H](CC(C)C)C(=O)N[C@@H](CCCNC(=N)N)C(=O)N[C@@H](CCCCN)C(=O)N2)NC(=O)[C@H](CSSC[C@@H](C(=O)N[C@@H](CCCCN)C(=O)N[C@@H](Cc2ccc(O)cc2)C(=O)N[C@H](C(=O)N[C@@H](Cc2ccccc2)C(=O)O)C(C)C)NC(=O)[C@H](Cc2c[nH]c4ccccc24)NC(=O)[C@H](CCCNC(=N)N)NC(=O)[C@H](Cc2c[nH]cn2)NC(=O)[C@H]([C@@H](C)O)NC(=O)[C@H](CCCNC(=N)N)NC(=O)[C@H](CO)NC3=O)NC(=O)[C@H](CCCCN)NC(=O)[C@H](CC(=O)O)NC(=O)[C@H](C)NC(=O)[C@H](CC(=O)O)NC(=O)[C@@H]2CCCN2C1=O [compound 860] (H-DCLGALRKCIPDADKCCRPNLVCSRTHRWCKYVF-OH; disulfide 2-17, 9-23, 16-30) | > 5 | > 5 | 4.5 | – |
| CC[C@H](C)[C@@H]1NC(=O)[C@@H]2CSSC[C@@H]3NC(=O)[C@H](C(C)C)NC(=O)[C@H](CC(C)C)NC(=O)[C@H](CC(N)=O)NC(=O)[C@@H]4CCCN4C(=O)[C@H](CCCNC(=N)N)NC(=O)[C@H](CSSC[C@H](NC(=O)[C@@H](N)CC(=O)O)C(=O)N[C@@H](CC(C)C)C(=O)NCC(=O)N[C@@H](Cc4ccccc4)C(=O)N[C@@H](CCSC)C(=O)N[C@@H](CCCNC(=N)N)C(=O)N[C@@H](CCCCN)C(=O)N2)NC(=O)[C@H](CSSC[C@@H](C(=O)N[C@@H](CCCCN)C(=O)N[C@@H](Cc2ccc(O)cc2)C(=O)N[C@H](C(=O)N[C@@H](Cc2ccccc2)C(N)=O)C(C)C)NC(=O)[C@H](Cc2c[nH]c4ccccc24)NC(=O)[C@H](C)NC(=O)[C@H](Cc2cnc[nH]2)NC(=O)[C@H]([C@@H](C)O)NC(=O)[C@H](CCCNC(=N)N)NC(=O)[C@H](CO)NC3=O)NC(=O)[C@H](CCCCN)NC(=O)[C@H](CC(=O)O)NC(=O)[C@H](CC(N)=O)NC(=O)[C@H](CC(=O)O)NC(=O)[C@@H]2CCCN2C1=O [compound 12] (H-DCLGFMRKCIPDNDKCCRPNLVCSRTHAWCKYVF-NH2; disulfide 2-17, 9-23, 16-30) | – | – | – | IC50 (hNav1.7): 0.36 µM; IC50 (hNav1.5; Table 23, use, […]): 17.3 µM; IC50 (hNav1.3; Table 23, use, […]): 0.66 µM |
| CC[C@H](C)[C@@H]1NC(=O)[C@@H]2CSSC[C@@H]3NC(=O)[C@H](C(C)C)NC(=O)[C@H](CC(C)C)NC(=O)[C@H](CC(N)=O)NC(=O)[C@@H]4CCCN4C(=O)[C@H](CCCNC(=N)N)NC(=O)[C@H](CSSC[C@H](NC(=O)[C@@H](N)CC(=O)O)C(=O)N[C@@H](CC(C)C)C(=O)NCC(=O)N[C@@H](C)C(=O)N[C@@H](CC(C)C)C(=O)N[C@@H](CCCNC(=N)N)C(=O)N[C@@H](CCCCN)C(=O)N2)NC(=O)[C@H](CSSC[C@@H](C(=O)N[C@@H](CCCCN)C(=O)N[C@@H](Cc2ccc(O)cc2)C(=O)N[C@H](C(=O)N[C@@H](Cc2ccccc2)C(=O)O)C(C)C)NC(=O)[C@H](Cc2c[nH]c4ccccc24)NC(=O)[C@H](CCCNC(=N)N)NC(=O)[C@H](Cc2c[nH]cn2)NC(=O)[C@H]([C@@H](C)O)NC(=O)[C@H](CCCNC(=N)N)NC(=O)[C@H](CO)NC3=O)NC(=O)[C@H](CCCCN)NC(=O)[C@H](CC(=O)O)NC(=O)[C@H](CC(=O)O)NC(=O)[C@H](CC(=O)O)NC(=O)[C@@H]2CCCN2C1=O [compound 861] (H-DCLGALRKCIPDDDKCCRPNLVCSRTHRWCKYVF-OH; disulfide 2-17, 9-23, 16-30) | > 5 | > 5 | > 5 | – |
| CC[C@H](C)[C@@H]1NC(=O)[C@@H]2CSSC[C@@H]3NC(=O)[C@H](C(C)C)NC(=O)[C@H](CC(C)C)NC(=O)[C@H](CC(N)=O)NC(=O)[C@@H]4CCCN4C(=O)[C@H](CCCNC(=N)N)NC(=O)[C@H](CSSC[C@H](NC(=O)[C@@H](N)CC(=O)O)C(=O)N[C@@H](CC(C)C)C(=O)NCC(=O)N[C@@H](Cc4ccc(C(C)(C)C)cc4)C(=O)N[C@@H](CC(C)C)C(=O)N[C@@H](CCCNC(=N)N)C(=O)N[C@@H](CCCCN)C(=O)N2)NC(=O)[C@H](CSSC[C@@H](C(=O)N[C@@H](CCCCN)C(=O)N[C@@H](Cc2ccc(O)cc2)C(=O)N[C@H](C(=O)N[C@@H](Cc2ccccc2)C(N)=O)C(C)C)NC(=O)[C@H](Cc2c[nH]c4ccccc24)NC(=O)[C@H](CCCCN)NC(=O)[C@H](Cc2c[nH]cn2)NC(=O)[C@H]([C@@H](C)O)NC(=O)[C@H](CCCNC(=N)N)NC(=O)[C@H](CO)NC3=O)NC(=O)[C@H](CCCCN)NC(=O)[C@H](CC(=O)O)NC(=O)[C@H](CC(N)=O)NC(=O)[C@H](CC(=O)O)NC(=O)[C@@H]2CCCN2C1=O [compound 671] | – | – | – | IC50 (hNav1.7; [2]): 0.14 µM; IC50 (hNav1.5; [3]): > 5 µM; IC50 (hNav1.3; [4]): 0.05 µM |
| CC[C@H](C)[C@@H]1NC(=O)[C@@H]2CSSC[C@@H]3NC(=O)[C@H](C(C)C)NC(=O)[C@H](CC(C)C)NC(=O)[C@H](CC(N)=O)NC(=O)[C@@H]4CCCN4C(=O)[C@H](CCCNC(=N)N)NC(=O)[C@H](CSSC[C@H](NC(=O)[C@@H](N)CC(=O)O)C(=O)N[C@@H](CC(C)C)C(=O)NCC(=O)N[C@@H](C)C(=O)N[C@@H](Cc4ccccc4)C(=O)N[C@@H](CCCNC(=N)N)C(=O)N[C@@H](CCCCN)C(=O)N2)NC(=O)[C@H](CSSC[C@@H](C(=O)N[C@@H](CCCCN)C(=O)N[C@@H](Cc2ccc(O)cc2)C(=O)N[C@H](C(=O)N[C@@H](Cc2ccccc2)C(=O)O)C(C)C)NC(=O)[C@H](Cc2c[nH]c4ccccc24)NC(=O)[C@H](CC(=O)O)NC(=O)[C@H](Cc2c[nH]cn2)NC(=O)[C@H]([C@@H](C)O)NC(=O)[C@H](CCCNC(=N)N)NC(=O)[C@H](CO)NC3=O)NC(=O)[C@H](CCCCN)NC(=O)[C@H](CC(=O)O)NC(=O)[C@H](CC(N)=O)NC(=O)[C@H](CC(=O)O)NC(=O)[C@@H]2CCCN2C1=O [compound 825] (H-DCLGAFRKCIPDNDKCCRPNLVCSRTHDWCKYVF-OH; disulfide 2-17, 9-23, 16-30) | > 5 | > 5 | > 5 | – |
